Where two headings read alike, the source gives them in different places. Ends that are not written are not given here.
Key:
[1] = tested on: Strep. agalactiae ATCC13813; assay: Deferred antagonism assay; assay type: cell-based; conditions: producing strain, diameter of zone minus 5 mm, average of duplicates
Staph. aureus DPC5245 [2] = assay: Deferred antagonism assay; assay type: cell-based; conditions: producing strain; diameter of zone minus 5 mm; average of duplicates; St. aureus DPC5245
In short: (§1)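 Producer strains replicated on GM17 agar, grown overnight, then overlaid with soft agar (0.75% w/v) seeded with indicator strain. Zone size = clearing diameter minus 5 mm growth diameter, relative to NZ9800 pCI372nisA control; mean of duplicates.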

[3] = tested on: Staph. aureus ST528 (MRSA); assay: Deferred antagonism assay; assay type: cell-based; conditions: producing strain, diameter of zone minus diameter of bacterial growth (5 mm), average of duplicates
In short: as §1

[4] = tested on: Strep. agalactiae ATCC13813; assay: Activity of concentrated peptide preparations; assay type: cell-based; conditions: data not shown
From the text: (§2) The most common post-translational modifications of lantibiotics involve the dehydration of serine to dehydroalanine (Dha) and of threonine to dehydrobutyrine (Dhb). These dehydrated residues interact with cysteine to form intramolecular lanthionine and β-methyllanthionine bridges, respectively.

L. lactis HP [5] = assay: Activity of concentrated peptide preparations; assay type: cell-based; conditions: data not shown
From the text: as §2

Staph. aureus DPC5245 [6] = assay: Activity of concentrated peptide preparations; assay type: cell-based; conditions: data not shown
From the text: as §2

L. lactis CBC8 = assay: Deferred antagonism assay; assay type: cell-based; design: key: + = Enhanced bioactivity relative to control; − = Bioactivity equal to or less than control; NA = no activity evident; conditions: producing strain
In short: (§3)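 Well-diffusion testing of purified nisin variants in 0.005% acetic acid, serially diluted, 37° C overnight; AU/ml = reciprocal of last dilution with definite zone × 20. Deferred antagonism: overnight GM17 colonies overlaid with seeded soft agar (0.75%); zone = clearing diameter minus 5 mm.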

S. aureus CBC4 = assay: Deferred antagonism assay; assay type: cell-based; design: key: + = Enhanced bioactivity relative to control; − = Bioactivity equal to or less than control; NA = no activity evident; conditions: producing strain
In short: as §3

L. lactis CBC7 = assay: Deferred antagonism assay; assay type: cell-based; design: key: + = Enhanced bioactivity relative to control; − = Bioactivity equal to or less than control; NA = no activity evident; conditions: producing strain
In short: as §3

L. monocytogenes CBC3 = assay: Deferred antagonism assay; assay type: cell-based, Listeria monocytogenes; design: key: + = Enhanced bioactivity relative to control; − = Bioactivity equal to or less than control; NA = no activity evident; conditions: producing strain; L. mono CBC3
In short: as §3

L. monocytogenes CBC1 = assay: Deferred antagonism assay; assay type: cell-based, Listeria monocytogenes; design: key: + = Enhanced bioactivity relative to control; − = Bioactivity equal to or less than control; NA = no activity evident; conditions: producing strain; L. mono CBC1
In short: as §3

L. monocytogenes CBC2 = assay: Deferred antagonism assay; assay type: cell-based, Listeria monocytogenes; design: key: + = Enhanced bioactivity relative to control; − = Bioactivity equal to or less than control; NA = no activity evident; conditions: producing strain; L. mono CBC2
In short: as §3

L. plantarum CBC6 = assay: Deferred antagonism assay; assay type: cell-based, Lactobacillus plantarum; design: key: + = Enhanced bioactivity relative to control; − = Bioactivity equal to or less than control; NA = no activity evident; conditions: producing strain
In short: as §3

C. sporogenes CBC5 = assay: Deferred antagonism assay; assay type: cell-based, Clostridium sporogenes; design: key: + = Enhanced bioactivity relative to control; − = Bioactivity equal to or less than control; NA = no activity evident; conditions: producing strain
indicator strains = assay: Deferred antagonism assays, various indicator strains (summary); assay type: cell-based; conditions: relative to nisin A-producing control; value = strains listed
In short: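 Producer strains were replicated on GM17 or GM17 x-gal agar, grown overnight, then overlaid with GM17, BHI, TS or MH soft agar (0.75% w/v) seeded with the indicator strain. Zone size was taken as the clearing diameter minus the diameter of bacterial growth (5 mm).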

[7] = tested on: Strep. agalactiae ATCC13813; assay: Deferred antagonism assay; assay type: cell-based; conditions: chromosomal replacement strains; Strep. agalactiae ATCC 13813
L. lactis HP [8] = assay: Deferred antagonism assay; assay type: cell-based, L. lactis spp cremoris; conditions: producing strain
Method: Deferred antagonism assays were performed by replicating strains on GM17 or GM17 x-gal agar plates and allowing them to grow overnight before overlaying with either GM17/BHI/TS/MH agar (0.75% w/v agar) seeded with the appropriate indicator strain. Zone size was calculated as the diameter of the zone of clearing minus the diameter of bacterial growth (5 mm) For higher throughput screening of N20PXX, XM21VX, XXK22T and XXX banks deferred antagonism assays were performed by replicating strains using a 96 pin replicator (Boekel) or spotting 5 μl of a fresh overnight culture on GM17 agar plates and allowing them to grow overnight. […] Additional sets of indicators were employed to further assess/reassess the bioactivity of a number of strains. […] For well-diffusion assays molten agar was cooled to 48° C. and seeded with the appropriate indicator strain. The inoculated medium was rapidly transferred into sterile Petri plates in 50 ml volumes, allowed to solidify and dried. […] Bioactivity was expressed as arbitrary units/ml (AU/ml) and calculated as the reciprocal of the highest dilution that gave a definite zone multiplied by the conversion factor (i.e. 20 when 50 μl was used) (Ryan et al., 1996).
In all cases the bioactivity of each variant was assessed by the size of the zone of inhibition in a deferred antagonism assay against various indicator strains. […]

[9] = tested on: Strep. agalactiae ATCC13813; assay: Specific activity of purified peptide, equimolar concentrations; assay type: cell-based
Method: (§4) Deferred antagonism assays were performed by replicating strains on GM17 or GM17 x-gal agar plates and allowing them to grow overnight before overlaying with either GM17/BHI/TS/MH agar (0.75% w/v agar) seeded with the appropriate indicator strain. Zone size was calculated as the diameter of the zone of clearing minus the diameter of bacterial growth (5 mm) For higher throughput screening of N20PXX, XM21VX, XXK22T and XXX banks deferred antagonism assays were performed by replicating strains using a 96 pin replicator (Boekel) or spotting 5 μl of a fresh overnight culture on GM17 agar plates and allowing them to grow overnight. […] For well-diffusion assays molten agar was cooled to 48° C. and seeded with the appropriate indicator strain. The inoculated medium was rapidly transferred into sterile Petri plates in 50 ml volumes, allowed to solidify and dried. Wells (4.6 mm in diameter) were then made in the seeded plates. […] Bioactivity was expressed as arbitrary units/ml (AU/ml) and calculated as the reciprocal of the highest dilution that gave a definite zone multiplied by the conversion factor (i.e. 20 when 50 μl was used) (Ryan et al., 1996).

Listeria innocua FH2051 = assay: Co-cultivation assay in GM17; assay type: cell-based; conditions: GM17, 30° C.
Method: The indicator used for this trial was Listeria innocua FH2051 or L. monocytogenes EGDe. GM17 was co-inoculated with Listeria and the nisin variant producer being tested. […] The culture preparations were incubated at 30° C. Listeria numbers were determined on the basis of viable counts. For this purpose a dilution series were prepared at specific time intervals and plated onto Listeria selective agar base (Oxford formulation) (Oxoid Ltd.).
Assessment of the ability of nisin-variant producing lactococci to inhibit the growth of Listeria in broth: The ability of Listeria to survive in the presence of nisin-producing L. lactis strains was examined using a co-cultivation approach. Initial trials employed Listeria innocua FH2051 as a target.

Staph. aureus ST528 = assay: Specific activity of purified peptide, equimolar concentrations; assay type: cell-based
Method: as §4

Strep. pneumoniae = conditions: cited from earlier work

Row | Substance | zone size relative to that of the NZ9800 pCI372nisA control [1] | zone size relative to that of the NZ9800 pCI372nisA control (Staph. aureus DPC5245 [2]) | zone size relative to that of the NZ9800 pCI372nisA control [3] | activity relative to the wild-type peptide [4] | activity relative to the wild-type peptide (L. lactis HP [5]) | activity relative to the wild-type peptide (Staph. aureus DPC5245 [6]) | Bioactivity relative to control (L. lactis CBC8) | Bioactivity relative to control (S. aureus CBC4) | Bioactivity relative to control (L. lactis CBC7) | Bioactivity relative to control (L. monocytogenes CBC3) | Bioactivity relative to control (L. monocytogenes CBC1) | Bioactivity relative to control (L. monocytogenes CBC2) | Bioactivity relative to control (L. plantarum CBC6) | Bioactivity relative to control (C. sporogenes CBC5) | Strain(s) against which the derivative (producing strain) displays enhanced bioactivity (indicator strains) | bacteriocin production/bioactivity relative to L. lactis NZ9700 [7] | other results
1 | M21C: nisin A derivative, hinge substitution M21C (ITSISLCTPGCKTGALMGCNCKTATCHCSIHVSK; cysteine pairing not given here; also: lantibiotic nisin-A; UniProt P13068 24-57, looked up, variant M21C) | 0% | 0% | 0% | undetectable | drastically reduced | undetectable | − | − | − | − | − | − | − | − |  |  | 
2 | N20C: nisin A derivative, hinge substitution N20C (ITSISLCTPGCKTGALMGCCMKTATCHCSIHVSK; cysteine pairing not given here; also: lantibiotic nisin-A; UniProt P13068 24-57, looked up, variant N20C) | 0% | 0% | 0% | undetectable | drastically reduced | undetectable |  |  |  |  |  |  |  |  |  |  | 
3 | NisinA K22S (ITSISLCTPGCKTGALMGCNMSTATCHCSIHVSK; not fully specified; also: lantibiotic nisin: dehydrated residues and thioether rings not placed; UniProt P13068 24-57, looked up, variant K22S) [nisin A derivative, hinge substitution K22S] | 142% | 124% | 154% |  |  |  | + | − | − | − | − | + | − | − | Strep. agalactiae ATCC13813, Staph. aureus ST528 and Staph. aureus DPC5245 and L. monocytogenes CBC2 and CBC8 and L. lactis CBC8 and L. monocytogenes CBC2, L. lactis CBC8, S. aureus ST528 | enhanced | 
4 | NisinA N20P (ITSISLCTPGCKTGALMGCPMKTATCHCSIHVSK; not fully specified; also: lantibiotic nisin: dehydrated residues and thioether rings not placed; UniProt P13068 24-57, looked up, variant N20P) [nisin A derivative, hinge substitution N20P] | 22% | 123% | 125% |  |  |  | − | + | + | + | − | − | − | + | CBC4, L. monocytogenes CBC3, C. sporogenes CBC5 and L. lactis CBC7 | enhanced | bioactivity against L. lactis HP relative to control (L. lactis HP [8]): enhanced; reduction in specific activity relative to nisin A [9]: 75%; impact on growth of FH2051 (Listeria innocua FH2051): reduced its numbers; increased specific activity relative to nisin A (Staph. aureus ST528): 100%
5 | nisin |  |  |  |  |  |  |  |  |  |  |  |  |  |  |  |  | minimum inhibitory concentration (MIC) (Strep. pneumoniae; penicillin-susceptible strain before serial exposure to nisin): 0.4 µg/mL; minimum inhibitory concentration (MIC) (Strep. pneumoniae; stable nisin-resistant mutants after serial exposure to nisin (1 mg/L)): 6.4 µg/mL

— patent US8987193B2, “Nisin derivatives and the use thereof” (University College Cork—National University of Ireland, Cork, priority 2008, dated 2015)
